± gives the expanded uncertainty stated by the source.
Conditions: Crystal; visual observation

| Normal melting temperature | Structure (SMILES) |
| --- | --- |
| 160.00 ± 1.1 °C | CN(C)c1ccc(C(=C2C=CC(=[N+](C)C)C=C2)c2ccccc2)cc1.CN(C)c1ccc(C(=C2C=CC(=[N+](C)C)C=C2)c2ccccc2)cc1.O=C(O)C(=O)O.O=C([O-])C(=O)O.O=C([O-])C(=O)O [Malachite green oxalate] |
| 300.00 ± 1.1 °C | Cc1cc2nc3cc(C)c(N)cc3[n+](-c3ccccc3)c2cc1N.[Cl-] [Safranine O] |
